Measurements published in the OligoGym collection.
Where “and” joins values, the source holds several entries; their conditions need not be identical. Equal entries are not always repeated. After the bases stand the sugars from the 5' end (letter, count) and the backbone: PS all phosphorothioate, else s phosphorothioate and o phosphodiester by linkage. Methylation of C is not given here. e = 2'-O-(2-methoxyethyl) (MOE); k = constrained ethyl (cEt); d = 2'-deoxy (DNA)

What follows are sequences tested against IRF4. Settings: ASO, MM.1R, 4 µM.

Sequence | target mRNA inhibition
TGTGTATTACTCTTAG (sugars kkdddddddddkekek, PS) | 85%
TTGGTTGGCTGGTCTT (sugars k3 d10 k3, PS) | 89%

Same assay, conditions: ASO, SK-MEL-28, 0.185 µM

Sequence | target mRNA inhibition
TGGCTAGCAGAGGTTC (sugars k3 d10 k3, PS) | 1%

Same assay, conditions: ASO, SK-MEL-28, 4 µM

Sequence | target mRNA inhibition
TGATATTAGAGACTGT (sugars k3 d10 k3, PS) | 60%
TGCAAAATAGTCACTC (sugars k3 d10 k3, PS) | 48%
TGCAAACGACAAGTGG (sugars k3 d10 k3, PS) | 21%
TGCAAGATGACTCCAT (sugars k3 d10 k3, PS) | 57%
TGCATGAGGGTGACAC (sugars k3 d10 k3, PS) | 45%
TGCCAGAGGGCAAGAT (sugars k3 d10 k3, PS) | 2%
TGCCAGTGGTGGCCGC (sugars k3 d10 k3, PS) | 30%
TGCCGAGATATAAATA (sugars k3 d10 k3, PS) | 23%
TGCCGTGTCAGGGTCG (sugars k3 d10 k3, PS) | 11%
TGCCTGAACTGTGTAA (sugars k3 d10 k3, PS) | 35%
TGCGAGTACCCAAGAC (sugars k3 d10 k3, PS) | 59%
TGCTGATCCTGGGAGT (sugars k3 d10 k3, PS) | 79%
TGCTTATCAATGCCAA (sugars k3 d10 k3, PS) | 70%
TGCTTCAACACACTGT (sugars k3 d10 k3, PS) | 3%
TGCTTTGGGCACCAAA (sugars k3 d10 k3, PS) | 52%
TGGAAACTCCTCTCCA (sugars k3 d10 k3, PS) | 16%
TGGACATCTGCGGGTC (sugars k3 d10 k3, PS) | 44%
TGGACTCGGAGCTGAG (sugars k3 d10 k3, PS) | 24%
TGGCACCAAAAGTACC (sugars k3 d10 k3, PS) | 34%
TGGCACCAAGGTCCAG (sugars k3 d10 k3, PS) | 1%
TGGCCTTCCTGGCGGA (sugars k3 d10 k3, PS) | 9%
TGGCGGAGCATCAACA (sugars k3 d10 k3, PS) | 37%
TGGCGGATAGATCTGT (sugars k3 d10 k3, PS) | 34%
TGGCTAGCAGAGGTTC (sugars k3 d10 k3, PS) | 56%
TGGGAGTACCCGCAGA (sugars k3 d10 k3, PS) | 26%
TGGTACGGGATTTCCG (sugars k3 d10 k3, PS) | 37%
TGTCAAAGAGCTTGCA (sugars k3 d10 k3, PS) | 11%

Sequence | target mRNA inhibition
TGTCACCTGGCAACCA (sugars k3 d10 k3, PS) | 9%
TGTGAACATCTCAGAT (sugars k3 d10 k3, PS) | 12%
TGTTACCGATGCTTCA (sugars k3 d10 k3, PS) | 49%
TTAAAGAGTGGTACAC (sugars k3 d10 k3, PS) | 6%
TTAAGAGGCGACTGCT (sugars k3 d10 k3, PS) | 12%
TTACAGCATCTAAGGC (sugars k3 d10 k3, PS) | 21%
TTACTTCCCTGAGAAA (sugars k4 d8 k4, PS) | 14%
TTAGACATTACTAGAT (sugars k3 d10 k3, PS) | 45%
TTATGCATGTTCCTCA (sugars k3 d10 k3, PS) | 57%
TTATTAGACTGACAGC (sugars k3 d10 k3, PS) | 37%
TTATTTGTGGCTCAAC (sugars k3 d10 k3, PS) | 18%
TTCAAAGCGCACCGCA (sugars k3 d10 k3, PS) | 49%
TTCAGAGTCCTGAGAC (sugars k3 d10 k3, PS) | 46%
TTCATAGCTAGTTCAT (sugars k3 d10 k3, PS) | 44%
TTCCAGTGGTGGGTCC (sugars k3 d10 k3, PS) | 29%
TTCTACAAGGTCTGAG (sugars k3 d10 k3, PS) | 47%
TTCTTATGCATGTTCC (sugars k3 d10 k3, PS) | 65% and 80%
TTCTTTATGCGAAGAA (sugars k3 d10 k3, PS) | 9%
TTGAAGCAACACGGGA (sugars k3 d10 k3, PS) | 61%
TTGCAGAGCAATTTAC (sugars k3 d10 k3, PS) | 50%
TTGCTTTGCAGAGCAA (sugars k3 d10 k3, PS) | 28%
TTGGAAACCAGCCCTT (sugars k3 d10 k3, PS) | 39%
TTGGACAGAAGGGCAA (sugars k3 d10 k3, PS) | 29%
TTGGCCTGCCGGCCTG (sugars k3 d10 k3, PS) | 4%
TTTACTAACTGGCTTC (sugars k3 d10 k3, PS) | 45%
TTTACTGTTACCGATG (sugars k3 d10 k3, PS) | 48%
TTTATGAGCTTCCACA (sugars k3 d10 k3, PS) | 54%

Same assay, conditions: ASO, SK-MEL-28, 5 µM

Sequence | target mRNA inhibition
TGGCTAGCAGAGGTTC (sugars k3 d10 k3, PS) | 62%

Same assay, conditions: ASO, SK-MEL-28, 15 µM

Sequence | target mRNA inhibition
TGGCTAGCAGAGGTTC (sugars k3 d10 k3, PS) | 85%
